From US7704976B2, “Use of N-acetyl-D-glucosamine for preparing medicines for urogenital tract infection's treatment and prevention” (Third Military Medical University, Chinese People's …, priority 2002, dated 2010) come the findings set out here.

The test system of this assay is lactobacillus. The experiment in a line: Liquid culture of lactobacillus. Format: cell-based.

Take `CC(=O)N[C@H]1C(O)O[C@H](CO)[C@@H](O)[C@@H]1O` (stereo partly drawn) [N-acetyl-D-glucosamine]: the growth of lactobacillus entry is “could promote the growth of lactobacillus”.
